Source: the NIST ThermoML archive (doi:10.1016/j.fluid.2012.12.028)

Conditions: Liquid, Ebulliometric method (Recirculating still)

CON=C(C)C [propan-2-one O-methyl oxime]
Conditions	vapor or sublimation pressure [kPa]
307.8 K	21.3
312.4 K	26.3
316.6 K	32.3
319.6 K	36.3
322.9 K	42.3
327.6 K	51.3
330 K	56.3
332.2 K	61.3
334.2 K	66.3
336.1 K	71.3
337.7 K	76.3
339.6 K	81.3
341 K	86.3
342.6 K	91.3
344.1 K	96.3
